From ChEMBL document CHEMBL1149597, “Structure-activity relationships of semisynthetic mumbaistatin analogs” (Bioorg Med Chem, 2007)
Activity calls are given as the source filed them. The rule behind the calls is not given here.

The compounds below were run on Hepatocyte (assay: Inhibition of glucagon-stimulated glucose production in rat hepatocytes at 280 uM).
Format: functional

SMILES | inhibition at 280 µM
COc1cc2c(c(/C=C/c3cccc4ccccc34)c1C(=O)O)C(=O)c1c(O)cccc1C2=O | 40%

What follows are compounds tested against T1, Glucose-6-phosphate exchanger SLC37A4 (Homo sapiens, UniProt O43826) (assay: (§1) Inhibition of glucose 6 phosphate translocase 1).
T1 sequence (O43826 whole entry): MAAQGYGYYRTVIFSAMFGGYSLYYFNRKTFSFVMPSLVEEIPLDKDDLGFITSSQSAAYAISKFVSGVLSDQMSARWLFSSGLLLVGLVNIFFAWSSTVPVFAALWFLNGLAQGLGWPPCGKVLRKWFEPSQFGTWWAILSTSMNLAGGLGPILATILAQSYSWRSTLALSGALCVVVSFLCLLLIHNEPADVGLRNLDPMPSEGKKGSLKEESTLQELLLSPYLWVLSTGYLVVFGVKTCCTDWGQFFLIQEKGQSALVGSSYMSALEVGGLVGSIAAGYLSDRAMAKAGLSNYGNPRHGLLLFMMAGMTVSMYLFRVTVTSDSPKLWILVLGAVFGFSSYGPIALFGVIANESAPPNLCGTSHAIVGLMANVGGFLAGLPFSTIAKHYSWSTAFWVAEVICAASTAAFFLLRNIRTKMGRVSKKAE

SMILES | IC50
CCCCc1c(C(=O)O)c(O)cc2c1C(=O)c1c(O)cccc1C2=O | 100 µM
CC/C=C/c1c(C(=O)O)c(OC)cc2c1C(=O)c1c(O)cccc1C2=O | 12.5 µM
COc1cc2c(c(CSc3ccccc3)c1C(=O)O)C(=O)c1c(O)cccc1C2=O | 50 µM
C=CCCOc1ccccc1/C=C/c1c(C(=O)O)c(OC)cc2c1C(=O)c1c(OC)cccc1C2=O | 20 µM
C=C(c1cccc(O)c1C(=O)O)c1c(O)cccc1C(CCCCC)OC (centres undefined) | 50 µM
O=C(O)CC(O)CCC(=O)c1cccc(O)c1C(=O)c1c(C(=O)O)c(O)cc2c1C(=O)c1c(O)cccc1C2=O (centres undefined) [MUMBAISTATIN] | 0.005 µM
COc1cc2c(c(Cc3ccccc3)c1C(=O)O)C(=O)c1c(O)cccc1C2=O | 20 µM
COc1cc2c(c(/C=C/c3ccccc3)c1C(=O)O)C(=O)c1c(O)cccc1C2=O | 2.5 µM
O=C1c2cccc(O)c2C(=O)c2c1cc(O)c1c2CC(c2cccc3ccccc23)OC1=O (centres undefined) | 5 µM
COc1cc2c(c(/C=C/c3cccc4ccccc34)c1C(=O)O)C(=O)c1c(O)cccc1C2=O | 2.5 µM
CCC(C)CCc1c(C(=O)O)c(O)cc2c1C(=O)c1c(O)cccc1C2=O (centres undefined) | 200 µM
CCCCCC/C=C/c1c(C(=O)O)c(OC)cc2c1C(=O)c1c(O)cccc1C2=O | 50 µM

The compounds below were run against T2, Glucose-6-phosphate exchanger SLC37A4 (Homo sapiens) (UniProt O43826) (assay: as §1).
T2 sequence (whole entry): T1 sequence (O43826 whole entry)

SMILES | Activity
Cc1c(C(=O)O)c(O)cc2c1C(=O)c1c(O)cccc1C2=O | inactive
